Measured values published in US6423317B1, “Method of killing protozoa” (S.S. Steiner, Inc., priority 2001, dated 2002).

Columns and labels:
Euglena sp. = assay: Protozoicidal effect, time for 100% kill; format: cell-based; details: observation time 24 hours
Protocol: (§1) […] protozoa had stopped moving. The observation time was 24 hours. In order to determine whether the protozoa had been killed rather than only temporarily inactivated, the organisms in hop solution were centrifuged, the supernatant removed, and the protozoa placed into fresh medium in which hop was not present. When there was no revival of the organisms, it was concluded that they were dead rather than only temporarily inactivated.

Chaos sp. [1] = assay: Protozoicidal effect, time for 100% kill; format: cell-based; details: for Time of death (100% kill): observation time 24 hours
Protocol: (§2) The protozoicidal effect of various hop compounds was determined by preparing different concentrations of hop solution in 10 ml. of medium. The solution was poured into 6×4 multiwell dishes—3424 Mark 2 (Coster, Cambridge, Mass.). An average of 10 microorganisms was added to each well and observed under the stereomicroscope. Results were expressed as the time in minutes for a 100% kill, which was presumed when all of the
(§3) protozoa had stopped moving. The observation time was 24 hours.
(§4) In order to determine whether the protozoa had been killed rather than only temporarily inactivated, the organisms in hop solution were centrifuged, the supernatant removed, and the protozoa placed into fresh medium in which hop was not present. When there was no revival of the organisms, it was concluded that they were dead rather than only temporarily inactivated.
(§5) Tests were conducted to determine the effectiveness of the alpha and beta resins against amoebae.

Amoeba proteus = assay: Protozoicidal effect, time for 100% kill; format: cell-based; details: 500 μg/ml, observation time 24 hours
Protocol: as §2, §3, §4, §5

P. caudatum [2] = assay: Co-action of hop resins with carbon dioxide, time for 100% kill; format: cell-based, Paramecium caudatum; details: carbon dioxide bubbled into the medium for 30 seconds before inoculation
Protocol: (§6) Different concentrations of the alpha and beta resins of hop were prepared in 10 ml. of medium, as identified in Table 1, and poured into plastic tissue culture flasks of 25 cm. growth area with screw caps, obtained from Falcon, Oxnard, Calif. Carbon dioxide was then bubbled through the medium in the bottles at a rapid rate for a period of 30 seconds. An average of ten organisms were added to each flask and examined directly under the stereomicroscope. The times that were taken for a 100% kill of the organisms, that is, when all of the organisms ceased any motion, were recorded in minutes and are tabulated in Tables 7 and 8.

P. papillata = assay: Protozoicidal effect, time for 100% kill; format: cell-based, Polytomella papillata; details: observation time 24 hours
Protocol: as §1

Chaos sp. [3] = assay: Co-action of hop resins with carbon dioxide; format: cell-based
Protocol: as §6
The same tests but at greater resin concentrations were carried out on an amoeba strain, Chaos sp., and the results recorded in Table 8.

P. caudatum [4] = assay: Protozoicidal effect, time for 100% kill; format: cell-based, Paramecium caudatum; details: for Time of death (100% kill): observation time 24 hours
Protocol: as §1

T. pyriformis = assay: Protozoicidal effect, time for 100% kill; format: cell-based, Tetrahymena pyriformis; details: observation time 24 hours
Protocol: as §1

[5] = 0.2 μg/ml, listed as beta resin
[6] = 0.5 μg/ml, listed as beta resin

Structure (SMILES): CC(C)=CCC1=C(O)C(C(=O)CC(C)C)=C(O)C(CC=C(C)C)(CC=C(C)C)C1=O [Beta Resin, lupulone]
- Time of death (100% kill) (Euglena sp.; 0.05 μg/ml): not sensitive
- Time of death (100% kill) (Euglena sp.; 0.5 μg/ml): 2.5 min
- Time of death (100% kill) (Euglena sp.; 1.0 μg/ml): 1.5 min
- Time of death (100% kill) (Euglena sp.; 2.0 μg/ml): 1.2 min
- Time of death (100% kill) (Chaos sp. [1]; 10 μg/ml): neither the alpha nor beta resins were effective alone
- Time of death (100% kill) (Chaos sp. [1]; 50 μg/ml): 60 min
- Time of death (100% kill) (Chaos sp. [1]; 50 μg/ml, listed as beta resin): effective per se
- Time of death (100% kill) (Chaos sp. [1]; 100 μg/ml): 30 min
- Time of death (100% kill) (Chaos sp. [1]; 100 μg/ml, listed as beta resin): all were effective
- Time of death (100% kill) (Chaos sp. [1]; 200 μg/ml): 30 min
- Time of death (100% kill) (Chaos sp. [1]; 500 μg/ml): 25 min
- Time of death (100% kill) (Amoeba proteus): 180 min
- Time of death (100% kill), resin + CO2 (P. caudatum [2]; resin 0.05 μg/ml): 14 min
- Time of death (100% kill), resin + CO2 (P. caudatum [2]; resin 0.1 μg/ml): 5 min
- Time of death (100% kill) (P. papillata; 0.05 μg/ml): not sensitive
- Time of death (100% kill) (P. papillata; 0.2 μg/ml): 40 min
- Time of death (100% kill) (P. papillata; [5]): ≤ 40 min
- Time of death (100% kill) (P. papillata; 0.5 μg/ml): 5 min
- Time of death (100% kill) (P. papillata; 1.0 μg/ml): 3.5 min
- Time of death (100% kill) (P. papillata; 2.0 μg/ml): 2.0 min
- Effectiveness in killing with prior carbon dioxide treatment (Chaos sp. [3]; resin 10 ug/ml, prior carbon dioxide treatment): both were effective
- Effectiveness in killing with prior carbon dioxide treatment (Chaos sp. [3]; resin 50 ug/ml, carbon dioxide pretreatment): both were effective with carbon dioxide pretreatment
- Effectiveness in killing with prior carbon dioxide treatment (Chaos sp. [3]; resin 100 ug/ml, carbon dioxide pretreatment): all were most effective with pretreatment
- Time of death (100% kill) (P. caudatum [4]; 0.05 μg/ml): not sensitive
- Time for death to occur (P. caudatum [4]; 0.1 ug/ml): one
- Time of death (100% kill) (P. caudatum [4]; 0.1 μg/ml): 60 min
- Time of death (100% kill) (P. caudatum [4]; 0.2 μg/ml): 5 min
- Time of death (100% kill) (P. caudatum [4]; [5]): ≤ 5 min
- Time of death (100% kill) (P. caudatum [4]; 0.5 μg/ml): 3.5 min
- Time of death (100% kill) (P. caudatum [4]; [6]): five
- Time of death (100% kill) (P. caudatum [4]; 1.0 μg/ml): 3.0 min
- Time of death (100% kill) (P. caudatum [4]; 2.0 μg/ml): 2.0 min
- Time of death (100% kill) (T. pyriformis; 0.05 μg/ml): not sensitive
- Time of death (100% kill) (T. pyriformis; 0.2 μg/ml): 15 min
- Time of death (100% kill) (T. pyriformis; [5]): ≤ 15 min
- Time of death (100% kill) (T. pyriformis; 0.5 μg/ml): 3 min
- Time of death (100% kill) (T. pyriformis; [6]): five
- Time of death (100% kill) (T. pyriformis; 1.0 μg/ml): 1.5 min
- Time of death (100% kill) (T. pyriformis; 2.0 μg/ml): 1.0 min
- Time of death (100% kill) (T. pyriformis; 2.0 μg/ml, listed as beta resin): two

Structure (SMILES): O=C=O [Carbon dioxide, carbon dioxide]
- Time of death with carbon dioxide, without addition of hop (P. caudatum [2]; no hop): *Carbon dioxide had been bubbled into the medium for 30 seconds previous to inoculation and death without addition of hop occurred between 40-50 minutes.

Structure (SMILES): COc1cc(O)c(CC=C(C)C)c(O)c1C(=O)/C=C/c1ccc(O)cc1 [Xanthohumol, xanthohumol]
- Concentration effective in killing (Chaos sp. [1]): ≥ 5 µg/mL
- Time of death (100% kill) (Chaos sp. [1]; 5.0 μg/ml): 15 min
- Time of death (100% kill) (Chaos sp. [1]; 10 μg/ml): 11 min
- Time of death (100% kill) (P. caudatum [4]; 0.05 μg/ml): 10 min
- Time of death (100% kill) (P. caudatum [4]; 0.05 μg/ml, listed as xanthohumol): ten
- Time of death (100% kill) (P. caudatum [4]; 0.1 μg/ml): 5 min
- Time of death (100% kill) (P. caudatum [4]; 1.0 μg/ml): 2.5 min
